Test [1] concerns partially satiated rats. The note with it: cited from earlier work.
For test [2], the system named is mice. In words: Zymosan-induced paw edema. The class given is in vivo, mouse. The note with it: 100 μg/20 μL s.c., 15 min before zymosan. The procedure: Drugs were administered s.c. in the dorsal surface of the right hind paw at the dose of 100 μg/20 μL, 15 min before zymosan. […]
testing. […] Then, the compounds were
Compounds were prepared by freshly diluting
Then, these solutions were injected for
The total time the animal spent licking or biting its paw was calculated.
Then, paw edema was calculated as formerly
Paw volume was quantified using a
Data Analysis and Statistics
Statistically significant differences between
Data were considered statistically
The data and statistical analyses respected the recommendations on experimental design and analysis.

The target of test [3] is T1, CB1R (Rattus norvegicus, UniProt P20272).
T1 construct: Crude membrane fractions were prepared from the brain; from tissue; host or cells: Wistar rat whole brain, crude membrane fraction
In words: Ligand stimulated [35S]GTPγS binding assay in rat brain membranes. The class given is biochemical. The following applies: for Emax: read-out: [35S]GTPγS stimulation Emax; for CB1R functional profile (agonist / antagonist / inverse agonist): from [35S]GTPγS binding; for CB1R functional profile (agonist / antagonist / inverse agonist) / EC50: rat brain membranes; for EC50: ± SEM, read-out: [35S]GTPγS stimulation EC50. On the procedure: (§1) Our novel chemical compounds were tested in vitro for their binding ability, efficacy, and potency on CB1R in rat brain membrane homogenate (Table 2 and SI, Figure S1). CB1Rs are the most abundant G-protein coupled receptors in the rodent and mammalian brain; therefore, this is an appropriate model to characterize our ligands in a more physiological system.
(§2) In Vitro Biological Assays
(§3) Preparation of Brain Membrane Homogenates
Wistar rats were locally bred and handled according to the EU Directive 2010/63/EU and to the Regulations on Animal Protection (40/2013. (II. 14.) Korm. r.) of Hungary. Crude membrane fractions were prepared from the brain. Brains were quickly removed from the euthanized rats and directly put in an ice-cold 50 mM Tris-HCl buffer (pH 7.4). The collected tissue was then homogenized in 30 volumes (v/w) of an ice-cold buffer with a Braun Teflon-glass homogenizer at the highest rpm. The homogenate was centrifuged at 20,000 × g for 25 min, and the resulting pellet was suspended in the same volume of a cold buffer followed by incubation at 37 °C for 30 min to remove endogenous ligands. Centrifugation was then repeated. The final pellets were taken up in five volumes of a 50 mM Tris-HCl (pH 7.4) buffer containing 0.32 M sucrose and stored at -80 °C. Prior to the experiment, aliquots were thawed and centrifuged at 20,000 ×g for 25 min and then they were resuspended in 50 mM Tris-HCl (pH 7.4), homogenized with a Douncer, followed by the determination of the protein concentration by the method of Bradford. The membrane suspensions were immediately used either in radioligand binding experiments or in [35S]GTPγS functional assays. […]
(§4) was terminated by diluting the samples with an ice-cold wash buffer (50 mM of Tris-HCl, 2.5 mM of EGTA, 5 mM of MgCl2, 0.5% fatty acid free BSA, pH 7.4), followed by repeated washing and rapid filtration through Whatman GF/B glass fiber filters (Whatman Ltd., Maidstone, UK) pre-soaked with 0.1% polyethyleneimine (30 min before the filtration). Filtration was performed with a 24-well Brandel Cell Harvester (Gaithersburg, MD, USA). Filters were air-dried and immersed into Ultima Gold MV scintillation cocktail, and then radioactivity was measured with a TRI-CARB 2100TR liquid scintillation analyzer (Packard, Perkin Elmer, Waltham, MA, USA).
Ligand Stimulated [35S]GTPγS Binding Assay
Rat brain membranes (30 µg protein/tube), prepared as described above, were incubated with 0.05 nM of […]
mM of NaCl, 3 mM of MgCl2 and 1 mM of EGTA in a 50 mM Tris-HCl buffer (pH 7.4) for 60 min at 30 °C. Basal [35S]GTPγS binding was measured in the absence of ligands and set as 100%. Nonspecific […]
binding was determined by the addition of 10 µM unlabelled GTPγS and subtracted from total binding.
Incubation, filtration and radioactivity measurements of the samples were carried out as described above. […]
All […]
data and curves were analyzed by GraphPad Prism 5.0 (San Diego, CA, USA).
Background: Binding of GTPγS marks nucleotide exchange on a G protein.

Test [4] relates to mice. In words: Hot plate test. The class given is in vivo, mouse. The following applies: 10 μg/10 μL i.c.v., 15-120 min. The text has this: (§5) In Vivo Biological Assays
The international and national law and policies approved by Italian Ministry of Health were used to comply with all animal care and experimental procedures. Animal studies were advised in compliance with the ARRIVE guidelines and with the recommendations made by EU Directive 2010/63/EU for animal experiments and the Basel declaration including the 3Rs concept. CD-1 male mice (10-14 weeks of age, 25-30 g of weight) were bought from Charles River (Milan, Italy). […]
The test was carried out as previously described. […] Mice were transferred into transparent and individual plastic cages with thick white paper lining the bottom and access to a pre-measured amount of their regular lab chow (2 gr) for the 1-h test. […] The amount of food left in the trial cage, including crumbs, was measured, and the amount consumed was calculated. […]
Thermal nociception (hot-plate test) was assessed with a commercially available apparatus consisting of a metal plate 25x25 cm (Ugo Basile, Italy) heated to a constant temperature of 55.0 ± 0.1 °C, on which a plastic cylinder (20 cm diameter, 18 cm high) was placed. The time of latency (s) was recorded from the moment the animal was placed in the cylinder on the hot plate until it licked its paws or jumped; the cut-off time was 60 s. […] The time course of latency was then determined at 15, 30, 45, 60, 90 and 120 min after compound treatment. […]

Test [5] has as its system mice. The note with it: mice colitis model; cited from earlier work.
In test [6] the test system is rats with spinal cord injury (SCI). The note with it: repeated treatment; cited from earlier work.
Test [7] has as its target T1, CB1R. In words: [3H]WIN55,212-2 radioligand competition binding assay in rat brain membrane homogenate. The following applies: read-out: Ki [3H]WIN55,212-2 binding, 5 nM [3H]WIN55,212-2, ± SEM, n.b. = no binding of ligands was observed. On the procedure:
as §1, §2, §3
Wistar rats were locally bred and handled according to the EU Directive 2010/63/EU and to the Regulations on Animal Protection (40/2013. (II. 14.) Korm. r.) of Hungary. Crude membrane fractions were prepared from the brain. Brains were quickly removed from the euthanized rats and directly put in an ice-cold 50 mM Tris-HCl buffer (pH 7.4). The collected tissue was then homogenized in 30 volumes (v/w) of an ice-cold buffer with a Braun Teflon-glass homogenizer at the highest rpm. The homogenate was centrifuged at 20,000 × g for 25 min, and the resulting pellet was suspended in the same volume of a cold buffer followed by incubation at 37 °C for 30 min to remove endogenous ligands. Centrifugation was then repeated. The final pellets were taken up in five volumes of a 50 mM Tris-HCl (pH 7.4) buffer containing 0.32 M sucrose and stored at -80 °C. Prior to the experiment, aliquots were thawed and centrifuged at 20,000 ×g for 25 min and then they were resuspended in 50 mM Tris-HCl (pH 7.4), homogenized with a Douncer, followed by the determination of the protein concentration by the method of Bradford. The membrane suspensions were immediately used either in radioligand binding experiments or in [35S]GTPγS functional assays.
Radioligand Competition Binding Assay
Binding experiments were performed at 30 °C for 60 min in a 50 mM Tris-HCl binding buffer (pH 7.4) containing 2.5 mM of EGTA, 5 mM of MgCl2 and 0.5 mg/mL of fatty acid-free BSA in plastic tubes in a total assay volume of 1 mL that contained 0.3-0.5 mg/mL of a membrane protein. Competition binding […]
ligands. […] The incubation […]
as §4, with “MA, USA). […]” for “MA, USA).”
The results of the competition binding studies are reported as means ± S.E.M. of at least three independent experiments each performed in duplicate. In competition binding studies, the inhibitory constants (Ki) were calculated from the inflection points of the displacement curves using non-linear least-square curve fitting and the Cheng-Prusoff equation, Ki= […]/(1 + [ligand]/Kd). […]
In general terms: In a radioligand displacement assay an active substance lowers the binding of a labelled ligand.

For test [8], the system named is mice. In words: Feeding test (food intake). The class given is in vivo, mouse. The following applies: 10 mg/kg i.p., 1-h test, vs vehicle. On the procedure:
The tested compounds were injected i.p. (10 mg/kg), and after leaving for 30 min to allow the drug assimilation, mice were placed into individual cages with access to a predefined amount of their standard lab chow (2 g) for the 1-h test.
as §5
The international and national law and policies approved by Italian Ministry of Health were used to comply with all animal care and experimental procedures. Animal studies were advised in compliance with the ARRIVE guidelines and with the recommendations made by EU Directive 2010/63/EU for animal experiments and the Basel declaration including the 3Rs concept. CD-1 male mice (10-14 weeks of age, 25-30 g of weight) were bought from Charles River (Milan, Italy). Shortly after their arrival and for at least one week, they were kept in an animal care facility under controlled standard conditions of temperature (21 ± 1 °C), light (from 7:00 AM to 7:00 PM), and relative humidity (60 ± 10%). Access to drinking water and food was assured. All procedures were performed to decrease the number of animals used (n = 7 per group) and their distress.
The test was carried out as previously described. At 24 h before the start of a feeding test, all food was removed from the home cages of mice to be tested. The next day and at least 1 h before the feeding test began, the mice were transported to the laboratory. On test days, the animals were placed in the home cages for 30 min of drug assimilation, during which food was not available. Then compounds were intraperitoneally administered (10 mg/kg). Mice were transferred into transparent and individual plastic cages with thick white paper lining the bottom and access to a pre-measured amount of their regular lab chow (2 gr) for the 1-h test. At the end of 1 h, mice were repositioned into their home cage. The amount of food left in the trial cage, including crumbs, was measured, and the amount consumed was calculated.
Feeding trials normally happened on Tuesdays and Fridays between 12:00 and 14:00 h. […]

T1 sequence (P20272 whole entry): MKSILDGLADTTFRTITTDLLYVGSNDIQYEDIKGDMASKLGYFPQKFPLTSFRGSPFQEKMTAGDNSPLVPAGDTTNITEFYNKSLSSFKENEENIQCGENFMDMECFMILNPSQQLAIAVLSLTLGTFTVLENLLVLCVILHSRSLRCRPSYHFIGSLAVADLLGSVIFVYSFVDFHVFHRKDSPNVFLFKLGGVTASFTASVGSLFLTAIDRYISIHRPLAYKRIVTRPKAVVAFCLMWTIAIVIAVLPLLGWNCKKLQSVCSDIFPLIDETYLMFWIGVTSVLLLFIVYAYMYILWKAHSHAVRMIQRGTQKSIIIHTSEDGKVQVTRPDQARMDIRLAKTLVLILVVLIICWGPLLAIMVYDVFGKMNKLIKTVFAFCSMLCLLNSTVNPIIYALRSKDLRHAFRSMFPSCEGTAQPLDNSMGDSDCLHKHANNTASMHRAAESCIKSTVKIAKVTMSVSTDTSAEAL

Usually Emax stands for the greatest response seen or fitted, relative to the assay's reference. Take `Cc1c(C(=O)c2cccc3ccccc23)c2cccc3c2n1[C@H](CN1CCOCC1)CO3` [WIN55,212-2]: the “food intake and motor behavior after WIN55,212-2” value in test [1] (higher doses (5 mg/kg), partially satiated rats) is “inhibit the food intake and motor behavior”. Besides, the “food intake after WIN55,212-2” value in test [1] (i.p. 1 mg/kg and 2 mg/kg, up to 6 h after the injection) is listed as “hyperphagia”. For the same compound, the “anti-inflammatory effect on zymosan-induced paw volume increase” value in test [2] is “induced an anti-inflammatory effect”. In addition, in test [3], the Emax was 170 ± 1.7%. The “anti-nociceptive effect in hot plate test (%MPE)” value in test [4] is on record as “diminished immediately after administration”. Besides, the “anti-inflammatory effect in DSS-induced colitis” value in test [5] is recorded as “acting as an anti-inflammatory drug with improved pathological changes”. The neuropathic pain-related behavior entry in test [6] was “sustained decrease in neuropathic pain-related behavior”.

The EC50 is the concentration at which the effect is half-maximal. For orientation: Ki means a dissociation constant, usually derived from enzyme kinetics or from competition with a known ligand. On to `COC(=O)[C@@H](NC(=O)c1cc(-n2cccc2)n(-c2ccccc2)n1)C(C)(C)C` [Compound 26, RS2708-tLeu-OCH3], for which, in test [3], the “CB1R functional profile (agonist / antagonist / inverse agonist)” value was “inverse agonists”, the EC50 is 1290 ± 151 nM and the Emax was determined as 44 ± 5%. For the same compound, in test [7], the Ki amounted to 283 ± 18 nM. The food intake result in test [8] is given as “strong anorexic effect comparable to that of rimonabant”.

As for `Cc1c(C(=O)N[C@H](C(N)=O)C(C)(C)C)nn(-c2ccc(Cl)cc2)c1-n1cccc1` [Compound 14, RS2691-tLeu-NH2], in test [3], the “CB1R functional profile (agonist / antagonist / inverse agonist)” value is given as “antagonist” and the Emax amounted to 104 ± 1.4%. For the same compound, the inhibitory constant (Ki) in test [7] was found to be 21 ± 3.8 nM. Besides, the food intake entry in test [8] is listed as “activity profile close to that of the vehicle”.

With `COC(=O)[C@@H](NC(=O)c1cc(-n2cccc2)n(-c2ccc(Cl)cc2)n1)C(C)(C)C` [Compound 22, RS2689-tLeu-OCH3], in test [3], the “CB1R functional profile (agonist / antagonist / inverse agonist)” value is on record as “inverse agonists”, the EC50 came to 4960 ± 333 nM and the maximal effect (Emax) turned out to be 43 ± 12%. Moreover, in test [7], the inhibitory constant (Ki) was found to be 44 ± 4 nM. Besides, the food intake entry in test [8] is on record as “activity profile close to that of the vehicle”.
